Source: patent publication US9963434B2, “N-arylmethyl sulfonamide negative modulators of NR2A” (LUC THERAPEUTICS, priority 2013, dated 2018)
pIC50: −log10 of the molar value. Like-named read-outs stand apart in the source and are kept apart here.

Molecular target: NR1/NR2A (Homo sapiens (Human), UniProt Q05586+Q12879)
Assay: FDSS Ca2+ influx inhibition assay in HEK293 cells expressing NR1/NR2A
Assay type: cell-based
Conditions: 3 μM glutamate, 3 μM glycine, 1 mM Ca2+
Method: Cell Culture and plating: HEK293 cells expressing NR1/NR2A (Chantest, Cleveland, Ohio) were grown to 70-80% confluency as an adherent monolayer in standard tissue culture flasks at 37° C., 5% CO2 per supplier's instructions.
After induction, cell culture medium was removed and cells were rinsed once with Ca^2+ and Mg^2+-free Dulbecco's phosphate buffered saline. Cells were then removed from the flask using TrypLE™ Express (Life Technologies) according to the manufacturer's instructions and collected to 50 ml centrifuge tubes. Following two washes in Ca^2+/Mg^2+-free HBSS with 20 mM HEPES (HHnoCa), cells were counted and viability assessed using trypan blue. To load cells with Ca^2+-sensitive dye, they were resuspended in fluo-8 plus Component B (AAT Bioquest Products) diluted in HHnoCa and incubated 15 minutes at 37° C., followed by 30 minutes at room temp (in dark). Cells were then washed and resuspended in HHnoCa to remove extracellular dye and plated in 384-well plates (Falcon, uncoated) at 20,000-30,000 cells/well in a final volume of 25 μL/well.
FDSS Assay: To each well of the plate, 10 μL test compound, control (MK801) or HHnoCa buffer was added to a final concentration of 10 μM with a final concentration of DMSO of 0.1%. Following 10 minutes pre-incubation in the dark, plates are loaded onto the Hamamatsu FDSS 6000. After collecting baseline fluorescence images, 3 μM glutamate, 3 μM glycine, and 1 mM Ca^2+ in HHnoCa buffer is added to each well, and Ca^2+ is recorded for 3 minutes. Data were processed by computing ratio of fluorescence at the end of data collection to baseline fluorescence to assess degree of Ca^2+ influx inhibition relative to that observed in MK801.

[1] = inhibition relative to MK801, read-out: NR2A IC50

Sequence of NR1/NR2A (Q12879 23-1464, other chains not shown): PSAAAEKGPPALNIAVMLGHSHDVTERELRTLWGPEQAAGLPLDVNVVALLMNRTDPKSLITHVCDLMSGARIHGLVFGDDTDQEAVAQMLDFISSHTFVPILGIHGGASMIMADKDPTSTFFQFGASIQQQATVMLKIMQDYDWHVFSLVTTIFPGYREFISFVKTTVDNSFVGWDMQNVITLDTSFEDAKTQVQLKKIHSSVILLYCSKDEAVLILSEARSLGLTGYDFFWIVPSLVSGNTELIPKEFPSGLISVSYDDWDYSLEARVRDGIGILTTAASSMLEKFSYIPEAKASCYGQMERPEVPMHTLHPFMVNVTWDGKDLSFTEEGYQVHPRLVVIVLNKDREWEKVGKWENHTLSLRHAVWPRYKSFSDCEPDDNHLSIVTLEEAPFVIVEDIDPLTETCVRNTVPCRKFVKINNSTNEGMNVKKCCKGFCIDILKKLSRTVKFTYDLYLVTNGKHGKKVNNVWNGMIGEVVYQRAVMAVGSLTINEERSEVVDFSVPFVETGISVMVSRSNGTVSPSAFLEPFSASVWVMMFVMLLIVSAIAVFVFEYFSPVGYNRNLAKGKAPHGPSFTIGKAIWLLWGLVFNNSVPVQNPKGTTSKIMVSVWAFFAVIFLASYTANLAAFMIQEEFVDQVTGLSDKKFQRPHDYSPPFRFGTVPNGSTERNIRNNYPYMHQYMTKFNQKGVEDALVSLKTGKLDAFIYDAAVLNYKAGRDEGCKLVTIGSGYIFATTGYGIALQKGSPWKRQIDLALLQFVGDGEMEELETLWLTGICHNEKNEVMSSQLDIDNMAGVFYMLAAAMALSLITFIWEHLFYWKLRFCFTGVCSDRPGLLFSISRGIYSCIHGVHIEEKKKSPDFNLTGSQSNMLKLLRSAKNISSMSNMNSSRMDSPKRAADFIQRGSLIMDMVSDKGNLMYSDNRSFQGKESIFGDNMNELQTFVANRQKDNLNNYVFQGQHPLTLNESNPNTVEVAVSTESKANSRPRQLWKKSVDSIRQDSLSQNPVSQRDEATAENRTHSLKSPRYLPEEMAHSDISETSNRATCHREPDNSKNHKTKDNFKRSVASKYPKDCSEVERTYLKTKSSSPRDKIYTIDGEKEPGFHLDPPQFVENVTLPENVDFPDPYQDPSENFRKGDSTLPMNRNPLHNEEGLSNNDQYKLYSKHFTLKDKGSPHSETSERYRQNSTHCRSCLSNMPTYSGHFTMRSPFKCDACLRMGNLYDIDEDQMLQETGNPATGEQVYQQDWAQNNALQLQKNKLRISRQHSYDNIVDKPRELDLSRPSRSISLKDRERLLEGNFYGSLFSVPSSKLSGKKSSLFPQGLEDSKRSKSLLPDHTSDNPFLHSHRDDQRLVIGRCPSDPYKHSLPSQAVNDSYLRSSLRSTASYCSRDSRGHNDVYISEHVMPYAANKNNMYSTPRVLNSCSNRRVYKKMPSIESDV

| pIC50 [1] | pIC50 (read-out: Binned Activity) | SMILES |
| --- | --- | --- |
| 5.00 | < 5.00 | Cc1ncc(CNC(=O)c2ccc(CNS(=O)(=O)c3ccc(Oc4ccccc4)nc3)cn2)s1 [N-[(2-methyl-1,3-thiazol-5-yl)methyl]-5-(6-phenoxypyridine-3-sulfonamidomethyl) pyridine-2-carboxamide] |
| 5.00 | < 5.00 | Cc1ncc(CNC(=O)c2cnc(CNS(=O)(=O)c3cc(F)cc(F)c3)cn2)s1 [5-(3,5-difluorobenzenesulfon-amidomethyl)-N-[(2-methyl-1,3-thiazol-5-yl)methyl]pyrazine-2-carboxamide] |
| – | > 7.00 | Cc1ncc(CNC(=O)c2cnc(CNS(=O)(=O)c3cccc(Cl)c3)c(C)n2)s1 [5-(3-chlorobenzenesulfon-midomethyl)-6-methyl-N-[(2-methyl-1,3-thiazol-5-yl)methyl]pyrazine-2-carboxamide] |
| 5.00 | < 5.00 | Cc1ncc(CNC(=O)c2ccc(CNS(=O)(=O)c3cccc4cccnc34)cn2)s1 [N-[(2-methyl-1,3-thiazol-5-yl)methyl]-5-(quinoline-8-sulfonamidomethyl) pyridine-2-carboxamide] |
| 5.00 | < 5.00 | Cc1ncc(CNC(=O)c2cnc(CNS(=O)(=O)c3ccc(Oc4ccccc4)nc3)cn2)s1 [N-[(2-methyl-1,3-thiazol-5-yl)methyl]-5-(6-phenoxypyridine-3-sulfonamidomethyl) pyrazine-2-carboxamide] |
| 5.00 | < 5.00 | Cc1nc(C)c(CNC(=O)c2ccc(CNS(=O)(=O)c3ccc(F)c(Cl)c3)cn2)s1 [5-(3-chloro-4-fluorobenzenesulfon-amidomethyl)-N-[(dimethyl-1,3-thiazol-5-yl)methyl]pyridine-2-carboxamide] |
| 5.00 | < 5.00 | Cc1ncc(CNC(=O)c2ccc(CNC(=O)c3cccc(Cl)c3C)cn2)s1 [5-{[(3-chloro-2-methylphenyl)formamido]methyl}-N-[(2-methyl-1,3-thiazol-5-yl)methyl]pyridine-2-carboxamide] |
| 5.00 | < 5.00 | Cc1ncc(CNC(=O)c2ccc(CNS(=O)(=O)c3ccc(Cl)nc3)cn2)s1 [5-(6-chloropyridine-3-sulfonamidomethyl)-N-[(2-methyl-1,3-thiazol-5-yl)methyl]pyridine-2-carboxamide] |
| 5.00 | < 5.00 | Cc1ncc(CNC(=O)c2ccc(CNS(=O)(=O)c3cc(Cl)ccc3F)cn2)s1 [5-(5-chloro-2-fluorobenzenesulfon-amidomethyl)-N-[(2-methyl-1,3-thiazol-5-yl)methyl]pyridine-2-carboxamide] |
| 5.00 | < 5.00 | Cc1ncc(CNC(=O)c2cnc(CNS(=O)(=O)c3ccc(Cl)c(F)c3)cn2)s1 [5-(4-chloro-3-fluorobenzenesulfon-amidomethyl)-N-[(2-methyl-1,3-thiazol-5-yl)methyl]pyrazine-2-carboxamide] |
| 5.00 | < 5.00 | Cc1ncc(CNC(=O)c2ccc(CNS(=O)(=O)c3csc4ccccc34)cn2)s1 [5-(1-benzothiophene-3-sulfonamidomethyl)-N-[(2-methyl-1,3-thiazol-5-yl)methyl]pyridine-2-carboxamide] |
| 5.00 | < 5.00 | Cn1nccc1CNC(=O)c1ccc(CNS(=O)(=O)c2ccc(F)c(Cl)c2)cn1 [5-(3-chloro-4-fluorobenzenesulfon-amidomethyl)-N-[(1-methyl-1H-pyrazol-5-yl)methyl]pyridine-2-carboxamide] |
| 5.00 | < 5.00 | Cc1ncc(CNC(=O)c2ccc(CNC(=O)c3cc(F)cc(F)c3)cn2)s1 [5-{[(3,5-difluorophenyl)form-amido]methyl}-N-[(2-methyl-1,3-thiazol-5-yl)methyl]pyridine-2-carboxamide] |

Further lines, the compound ahead of its results:

| SMILES | pIC50 [1] | pIC50 (read-out: Binned Activity) |
| --- | --- | --- |
| Cc1ccc(CNC(=O)c2cnc(CNS(=O)(=O)c3ccc(F)c(Cl)c3)cn2)s1 [5-(3-chloro-4-fluorobenzenesulfon-amidomethyl)-N-[(5-methylthiophen-2-yl)methyl]pyrazine-2-carboxamide] | 5.00 | < 5.00 |
| O=C(NCc1ccncc1)c1ccc(CNS(=O)(=O)c2ccc(F)c(Cl)c2)nn1 [6-(3-chloro-4-fluorobenzenesulfon-amidomethyl)-N-(pyridin-4-ylmethyl)pyridazine-3-carboxamide] | 5.00 | < 5.00 |
| O=C(NCc1ccccn1)c1ccc(CNS(=O)(=O)c2ccc(F)c(Cl)c2)nn1 [6-(3-chloro-4-fluorobenzenesulfon-amidomethyl)-N-(pyridin-2-ylmethyl)pyridazine-3-carboxamide] | 5.00 | < 5.00 |
| O=C(NCc1cnccn1)c1ccc(CNS(=O)(=O)c2ccc(F)c(Cl)c2)nn1 [6-(3-chloro-4-fluorobenzenesulfon-amidomethyl)-N-(pyrazin-2-ylmethyl)pyridazine-3-carboxamide] | 5.00 | < 5.00 |
| O=C(NCc1ccco1)c1ccc(CNS(=O)(=O)c2ccc(F)c(Cl)c2)cn1 [5-(3-chloro-4-fluorobenzenesulfon-amidomethyl)-N-(furan-2-ylmethyl)pyridine-2-carboxamide] | 5.00 | < 5.00 |
| O=C(NCc1ccncn1)c1ccc(CNS(=O)(=O)c2ccc(F)c(Cl)c2)nn1 [6-(3-chloro-4-fluorobenzenesulfon-amidomethyl)-N-(pyrimidin-4-ylmethyl)pyridazine-3-carboxamide] | 5.00 | < 5.00 |
| Cc1nnc(CNC(=O)c2cnc(CNS(=O)(=O)c3ccc(F)c(Cl)c3)cn2)s1 [5-(3-chloro-4-fluorobenzenesulfon-amidomethyl)-N-[(5-methyl-1,3,4-thiadiazol-2-yl)methyl]pyrazine-2-carboxamide] | – | 6.00 to 7.00 |
| O=C(NCc1cocn1)c1ccc(CNS(=O)(=O)c2ccc(F)c(Cl)c2)nn1 [6-(3-chloro-4-fluorobenzenesulfon-amidomethyl)-N-(1,3-oxazol-4-ylmethyl)pyridazine-3-carboxamide] | 5.00 | < 5.00 |
| O=C(NCc1ccsc1)c1ccc(CNS(=O)(=O)c2ccc(F)c(Cl)c2)cn1 [5-(3-chloro-4-fluorobenzenesulfon-amidomethyl)-N-(thiophen-3-ylmethyl)pyridine-2-carboxamide] | 5.00 | < 5.00 |
| O=C(NCc1ncccn1)c1ccc(CNS(=O)(=O)c2ccc(F)c(Cl)c2)nc1 [6-(3-chloro-4-fluorobenzenesulfon-amidomethyl)-N-(pyrimidin-2-ylmethyl)pyridine-3-carboxamide] | 5.00 | < 5.00 |
| Cc1cc(CNC(=O)c2cnc(CNS(=O)(=O)c3ccc(F)c(Cl)c3)cn2)n(C)n1 [5-(3-chloro-4-fluorobenzenesulfon-amidomethyl)-N-[(1,3-dimethyl-1H-pyrazol-5-yl)methyl]pyrazine-2-carboxamide] | 5.00 | < 5.00 |
| O=C(NCc1ccncc1)c1ccc(CNS(=O)(=O)c2ccc(F)c(Cl)c2)cn1 [5-(3-chloro-4-fluorobenzenesulfon-amidomethyl)-N-(pyridin-4-ylmethyl)pyridine-2-carboxamide] | 5.00 | < 5.00 |
| Cc1cc(CNC(=O)c2ccc(CNS(=O)(=O)c3ccc(F)c(Cl)c3)cn2)n(C)n1 [5-(3-chloro-4-fluorobenzenesulfon-amidomethyl)-N-[(1,3-dimethyl-1H-pyrazol-5-yl)methyl]pyridine-2-carboxamide] | 5.00 | < 5.00 |
| Cc1nnc(CNC(=O)c2ccc(CNS(=O)(=O)c3ccc(F)c(Cl)c3)nc2)s1 [6-(3-chloro-4-fluorobenzenesulfon-amidomethyl)-N-[(5-methyl-1,3,4-thiadiazol-2-yl)methyl]pyridine-3-carboxamide] | 5.00 | < 5.00 |
| C[C@@H](NC(=O)c1cnc(CNS(=O)(=O)c2ccc(F)c(Cl)c2)cn1)c1cncs1 [5-(3-chloro-4-fluorobenzenesulfon-amidomethyl)-N-[(1R)-1-(1,3-thiazol-5-yl)ethyl]pyrazine-2-carboxamide] | – | < 5.00 |
| CC(NC(=O)c1ccc(CNS(=O)(=O)c2ccc(F)c(Cl)c2)cn1)c1ccco1 (stereo not drawn) [5-(3-chloro-4-fluorobenzenesulfon-amidomethyl)-N-[1-(furan-2-yl)ethyl]pyridine-2-carboxamide] | – | 5.00 to 6.00 |
| Cc1ncc(CNC(=O)c2cnc(CNS(=O)(=O)c3ccc(F)c(Cl)c3)c(C(F)(F)F)n2)s1 [5-(3-chloro-4-fluorobenzenesulfon-amidomethyl)-N-[(2-methyl-1,3-thiazol-5-yl)methyl]-6-(trifluoromethyl)pyrazine-2-carboxamide] | – | 6.00 to 7.00 |
| COc1ccc(CNC(=O)c2ccc(CNS(=O)(=O)c3ccc(F)c(Cl)c3)nc2)cc1 [6-(3-chloro-4-fluorobenzenesulfon-amidomethyl)-N-[(4-methoxyphenyl)methyl] pyridine-3-carboxamide] | 5.00 | < 5.00 |
